Laboratory results as given in patent US5158939A, “Method of stimulating the immune systems of animals and compositions useful therefor” (priority 1990, dated 1992).
Entries after “also recorded” stand apart in the source; their conditions may differ. Read-outs that look alike come from different tables or passages of the source.

Columns and labels:
[1] = system: mice; assay: LD50 in galactosamine-sensitized mice; assay type: in vivo
Protocol: Although the diphospholipids from E. coli and Salmonella strains are highly toxic, DPLA having the structure of the diphosphoryllipid A from R. sphaeroides is not. The LD50 of DPLA in galactosamine--sensitized mice was greater than 20 mg/kg.

[2] = system: RAW 264.7 murine macrophage cells; details: as reported; cited from earlier work
[3] = system: 70Z/3 cells; assay type: cell-based
Protocol: ^1 Corrected for background of 5% fluorescence.
^2 The DPLA stimulated 7OZ/3 preB cells to the extent of from 2.5-6.0
fluorescence at concentrations of 1.0-10 mg/ml. In the competitive
inhibition experiment, the cells were first exposed to DPLA for 2 hours
before adding the ReLPS. In all experiments, the ReLPS and DPLA were
complexed with bovine serum albumin.
In this experiment, 0.1 μg/ml of ReLPS and 3.0 μg/ml of DPLA were
^1 The time of pre/post treatment of 7OZ/3 cells with DPLA relative t
the time of addition of ReLPS are indicated.

[4] = system: chick embryo; assay: Chick embryo lethality test; assay type: in vivo
Protocol: It was characterized as the tetramethyl derivative by plasma desorption mass spectrometry. It is nontoxic based on the chick embryo lethality test (CELD50 >20 μg), and its structure is shown in Formula II.

[5] = system: RAW 264.7 murine macrophage cells; assay: Cachectin/TNF production by RAW 264.7 cells, immunoblot; assay type: cell-based
Protocol: For the […] to activate the RAW 264.7 murine macrophage cell line, we chose the toxic deep rough chemotype LPS (ReLPS) from Escherichia coli D31m4, which was recently purified and characterized^15. […] This is a clear example of a lipid A derivative showing strong antagonism against a toxic agonist in the induction of cachectin.
The immunoblot method was used to quantitate the cachectin/TNF production by RAW 264.7 murine macrophage cells. RAW 264.7 cells^4,16 were seeded in 24-well plates (Nunc) at a density of 3×10^5 cells/well in Dulbecco's modified Eagle's medium supplemented with 5 percent fetal calf serum. After 12 hours, cell monolayers were washed twice with 1 ml of serum-free medium and then left covered with […] of the same. An aqueous suspension of DPLA and/or ReLPS was then added to a final concentration indicated. Cells were incubated for 12 hours, after which the medium was removed for measurement of TNF by immunoblotting. One hundred μl of medium was mixed with 100 μl of SDS-containing sample buffer, heated to 100° C. for 5 minutes, and subjected to electrophoresis in a 10-15% polyacrylamide gradient gel. Proteins were then transferred to nitrocellulose electrophoretically, and TNF was visualized through the use of a rabbit anti-mouse TNF polyclonal serum^3,5 applied at a 1:100 dilution, followed by alkaline phosphatase-conjugated goat anti-rabbit IgG (Bio-Rad).
Bands were visualized using nitroblue tetrazolium. Approximately 0.1 ng of cachectin/TNF may be detected as a band. The antiserum also recognized the processing intermediates (prohormones) on Western blot.

[6] = system: peritoneal macrophages; assay: Induction of IL-1 in thioglycollate-elicited peritoneal macrophages (comitogenic thymocyte assay); assay type: cell-based, BDF1 mice
Protocol: 1L-1 assay--Peritoneal exudate cells were harvested from BDF1 mice 48 h after an intraperitoneal injection of thioglycollate. […] Macrophages were either pretreated with R. sphaeroides DPLA (0.1-10 μg/ml) followed by the addition of toxic Re LPS (0.1 μg) after 2 h, or immediately stimulated with Re LPS (0.01-1.00 μg/ml). Control wells were treated with 10 μl of media containing 0.5% triethylamine. Cultures were incubated at 37° C. in the presence of 5% CO2 for 18 h at which time the supernatants were collected and frozen at -20° C. until assayed. 1L-1 activity was determined by the comitogenic thymocyte assay.^25
Peritoneal exudate cells were harvested from BDF1 mice 48 h after an intraperitoneal injection of thioglycollate as described previously (Lederer and Czuprynki). Macrophages were either pretreated with R. sphaeroides DPLA (0.1-10 μg/ml) followed by addition of toxic ReLPS (0.1 μg), or immediately stimulated with ReLPS (0.01-1.00 μg/ml). Control wells were treated with 10 μl of media with 0.5% triethylamine. Cultures were incubated at 37° C. in the presence of 5% CO2 for 18 h at which time the supernatants were collected and frozen at -20° C. until assayed.
ReLPS was added to the culture 2 h after adding the R. sphaeroides DPLA. […] Standard deviation in CPM are given in parentheses.

In the case of `CCCCCCC=CCCCCCC(=O)OC(CCCCCCCCCCC)CC(=O)NC1C(OCC2OC(OP(=O)(O)O)C(NC(=O)CC(=O)CCCCCCCCCCC)C(OC(=O)CC(O)CCCCCCC)C2O)OC(CO)C(OP(=O)(O)O)C1OC(=O)CC(O)CCCCCCC` (stereo not drawn) [DPLA], the LD50 [1] is given as “greater than 20 mg/kg”, the “blocking of LPS-induced TNF” value [2] is given as “competes successfully with toxic LPS to block the induction of TNF in a dose-dependent manner” and the “induction of TNF” value [2] is given as “fails to induce the synthesis and release of TNF by macrophages”. For the same molecule, the “Activation (% fluorescence)” value ([3]; Table 4, DPLA 0.1 μg/ml 2 h before ReLPS 0.1 μg/ml) was 52 % fluorescence, the “Activation (% fluorescence)” value ([3]; Table 4, DPLA 0.3 μg/ml 2 h before ReLPS 0.1 μg/ml) was 45 % fluorescence and the “Activation (% fluorescence)” value ([3]; Table 4, DPLA 1.0 μg/ml 2 h before ReLPS 0.1 μg/ml) was 26.5 % fluorescence. For the same molecule, the “Activation (% fluorescence)” value ([3]; Table 4, DPLA 3.0 μg/ml 2 h before ReLPS 0.1 μg/ml) was 14 % fluorescence, the “Activation (% fluorescence)” value ([3]; Table 5, DPLA 1.0 μg/ml, ReLPS 0) was 3.5 % fluorescence and the “Activation (% fluorescence)” value ([3]; Table 5, DPLA 1.0 μg/ml, ReLPS 0.1 μg/ml) was 28.5 % fluorescence. The “Activation (% fluorescence)” value ([3]; Table 5, DPLA 1.0 μg/ml, ReLPS 0.3 μg/ml) was 48.5 % fluorescence, the “Activation (% fluorescence)” value ([3]; Table 5, DPLA 1.0 μg/ml, ReLPS 1.0 μg/ml) was 57.5 % fluorescence and the “Activation (% fluorescence)” value ([3]; Table 5, DPLA 1.0 μg/ml, ReLPS 10 μg/ml) was 75.5 % fluorescence. For the same molecule, the “Activation (% fluorescence)” value ([3]; Table 5, DPLA 3.0 μg/ml, ReLPS 0) was 2.56 % fluorescence, the “Activation (% fluorescence)” value ([3]; Table 5, DPLA 3.0 μg/ml, ReLPS 0.1 μg/ml) was 13.5 % fluorescence and the “Activation (% fluorescence)” value ([3]; Table 5, DPLA 3.0 μg/ml, ReLPS 0.3 μg/ml) was 30 % fluorescence. The “Activation (% fluorescence)” value ([3]; Table 5, DPLA 3.0 μg/ml, ReLPS 1.0 μg/ml) was 55 % fluorescence, the “Activation (% fluorescence)” value ([3]; Table 5, DPLA 3.0 μg/ml, ReLPS 10 μg/ml) was 77 % fluorescence and the “Activation (% fluorescence)” value ([3]; Table 5, DPLA 10 μg/ml, ReLPS 0.1 μg/ml) was 4.5 % fluorescence. The “Activation (% fluorescence)” value ([3]; Table 5, DPLA 10 μg/ml, ReLPS 0.3 μg/ml) was 11 % fluorescence, the “Activation (% fluorescence)” value ([3]; Table 5, DPLA 10 μg/ml, ReLPS 1.0 μg/ml) was 25 % fluorescence and the “Activation (% fluorescence)” value ([3]; Table 5, DPLA 10 μg/ml, ReLPS 10 μg/ml) was 69 % fluorescence. For the same molecule, the “Activation (% fluorescence)” value ([3]; Table 6, DPLA 3.0 μg/ml added at 0 h relative to ReLPS 0.1 μg/ml) was 10.5 % fluorescence, the “Activation (% fluorescence)” value ([3]; Table 6, DPLA 3.0 μg/ml added at 2 h relative to ReLPS 0.1 μg/ml) was 20 % fluorescence and the “Activation (% fluorescence)” value ([3]; Table 6, DPLA 3.0 μg/ml added at 4 h relative to ReLPS 0.1 μg/ml) was 24 % fluorescence. For the same molecule, the “Activation (% fluorescence)” value ([3]; Table 6, DPLA 3.0 μg/ml added at 6 h relative to ReLPS 0.1 μg/ml) was 24.5 % fluorescence, the “Activation (% fluorescence)” value ([3]; Table 6, DPLA 3.0 μg/ml added at 8 h relative to ReLPS 0.1 μg/ml) was 9.5 % fluorescence and the “Activation (% fluorescence)” value ([3]; Table 6, DPLA 3.0 μg/ml added at 16 h relative to ReLPS 0.1 μg/ml) was 44 % fluorescence. For the same molecule, the “Activation (% fluorescence)” value ([3]; Table 6, DPLA 3.0 μg/ml added at 20 h relative to ReLPS 0.1 μg/ml) was 54 % fluorescence, the “Activation (% fluorescence)” value ([3]; Table 6, DPLA 3.0 μg/ml added at 24 h relative to ReLPS 0.1 μg/ml) was 55.5 % fluorescence and the “Activation (% fluorescence)” value ([3]; Table 6, DPLA 3.0 μg/ml added at -2 h relative to ReLPS 0.1 μg/ml) was 11 % fluorescence. The “antagonism of LPS-induced activation of 70Z/3 pre-B cells” value ([3]; in words) was “effective antagonist in the LPS-induced activation of 70Z/3 pre-B cells; also recorded: block LPS-inducted immunoglobulin synthesis by 70Z/3 pre-B cells”, the CELD50 [4] was greater than 20 µg and the “induction of cachectin (immunoblot)” value ([5]; DPLA 1-1000 ng/ml) was “not able to induce the formation of cachectin”. The “inhibition of ReLPS-induced cachectin (immunoblot)” value ([5]; DPLA 10^3 ng/ml + ReLPS 10 ng/ml (ReLPS:DPLA 1:100)) was “definite inhibition”, the “induction of cachectin (immunoblot)” value ([5]; DPLA 10^4 ng/ml) was “only slight induction” and the “blocking of ReLPS-induced cachectin/TNF (immunoblot)” value ([5]; in words) was “blocks the induction of cachectin; also recorded: blocking of induction”. The “DPLA concentration at which inhibition was probably maximal” value ([5]; with ReLPS 10 ng/ml) was < 10^4 ng/ml, the “IL-1 induction, CPM” value ([6]; DPLA 0.1 μg/ml 2 h before ReLPS 0.1 μg/ml, SD in parentheses) was 51,999 (4860) CPM and the “IL-1 induction, CPM - Blank” value ([6]; DPLA 0.1 μg/ml + ReLPS 0.1 μg/ml) was 44,211 CPM.
